Assay results reported in ChEMBL document CHEMBL1122789, “Synthesis and biological activity of structural analogues of the anticancer benzophenanthridine alkaloid nitidine chloride” (1984).
The source made the active and inactive calls. No cut-off for these calls is given here.

Legend:
[1] = system: P388; experiment: Evaluated for percentage test/control (%T/C) in survival tumor system against P388 lymphocytic leukemia; type: functional, Mus musculus
[2] = system: L1210; experiment: Evaluated for percentage test/control (%T/C) in survival tumor system against L1210 lymphoid leukemia; type: functional, Mus musculus
[3] = system: B16; experiment: Evaluated for percentage test/control (%T/C) in survival tumor system against B16 melanocarcinoma at dose 20 mg/Kg; type: functional, Mus musculus
[4] = system: KB; experiment: Evaluated in vitro for cytotoxicity against KB cell culture system; type: functional; settings: Homo sapiens, read-out: ED50 (the source's name)
[5] = system: P388; experiment: Evaluated for anticancer activity against P388 lymphocytic leukemia system at a dose of 200 mg/Kg; Inactive; type: functional; settings: Mus musculus

SMILES	T/C [1]	T/C [2]	T/C [3]	EC50 [4]	Anticancer activity [5]
COc1cc2c(ccc3c4cc(OC)c(OC)cc4c[n+](C)c23)cc1O.[Cl-] [FAGARONINE]	265%	–	–	–	–
COc1cc2c[n+](C)c3c4cc5c(cc4ccc3c2cc1OC)OCO5.[Cl-] [NITIDINE CHLORIDE]	209%	136%	141%	–	–
COc1cc2cc(-c3ccc4c(c3)OCO4)[n+](C)cc2cc1OC.[Cl-]	–	–	–	5 ng/mL	inactive
